# From patent publication US6730700B2, “3,4,5,-trisubstituted aryl nitrone compounds and pharmaceutical compositions containing the same” (Renovis, Inc., priority 1998, dated 2004)
# Columns and labels:
# [1] = biological target: T1, COX-2 derived from sheep placenta (Ovis aries, UniProt P79208); assay: Inhibition of COX-2 (arachidonic acid incubation, PGE2 formation); settings: 300 μM; PGE2 formation by spectrophotometric quantitation of malondialdehyde
# T1 sequence (P79208 17-603): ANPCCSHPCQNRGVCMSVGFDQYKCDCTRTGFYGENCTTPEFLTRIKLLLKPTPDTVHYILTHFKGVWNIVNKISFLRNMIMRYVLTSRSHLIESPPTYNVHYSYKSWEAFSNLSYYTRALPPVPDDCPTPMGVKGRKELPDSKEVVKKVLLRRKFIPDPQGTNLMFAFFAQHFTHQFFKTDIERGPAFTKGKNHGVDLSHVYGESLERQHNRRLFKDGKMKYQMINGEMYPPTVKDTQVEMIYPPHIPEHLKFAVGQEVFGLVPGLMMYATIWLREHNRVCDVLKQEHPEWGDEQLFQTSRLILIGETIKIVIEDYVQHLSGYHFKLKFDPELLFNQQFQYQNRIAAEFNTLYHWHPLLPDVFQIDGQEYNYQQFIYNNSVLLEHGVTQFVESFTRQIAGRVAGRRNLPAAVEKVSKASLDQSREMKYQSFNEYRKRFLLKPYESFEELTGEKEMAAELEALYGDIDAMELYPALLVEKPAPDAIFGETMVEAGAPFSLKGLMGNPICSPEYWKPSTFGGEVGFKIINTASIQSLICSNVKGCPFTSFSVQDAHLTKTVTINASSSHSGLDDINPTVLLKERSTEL
# Description: (§1) The inhibition of COX-1 was measured by incubating arachidonic acid with COX-1 derived from ram seminal vesicles. The inhibition of COX-2 was measured by incubation of arachidonic acid with COX-2 derived from sheep placenta. […] In each assay, the formation of prostaglandin E2 (PGE2) was measured by spectrophotometric quantitation of malondialdehyde.
# [2] = biological target: T2, COX-1 derived from ram seminal vesicles (Ovis aries, UniProt P05979); assay: Inhibition of COX-1 (arachidonic acid incubation, PGE2 formation); settings: 300 μM; PGE2 formation by spectrophotometric quantitation of malondialdehyde
# T2 sequence (P05979 25-600): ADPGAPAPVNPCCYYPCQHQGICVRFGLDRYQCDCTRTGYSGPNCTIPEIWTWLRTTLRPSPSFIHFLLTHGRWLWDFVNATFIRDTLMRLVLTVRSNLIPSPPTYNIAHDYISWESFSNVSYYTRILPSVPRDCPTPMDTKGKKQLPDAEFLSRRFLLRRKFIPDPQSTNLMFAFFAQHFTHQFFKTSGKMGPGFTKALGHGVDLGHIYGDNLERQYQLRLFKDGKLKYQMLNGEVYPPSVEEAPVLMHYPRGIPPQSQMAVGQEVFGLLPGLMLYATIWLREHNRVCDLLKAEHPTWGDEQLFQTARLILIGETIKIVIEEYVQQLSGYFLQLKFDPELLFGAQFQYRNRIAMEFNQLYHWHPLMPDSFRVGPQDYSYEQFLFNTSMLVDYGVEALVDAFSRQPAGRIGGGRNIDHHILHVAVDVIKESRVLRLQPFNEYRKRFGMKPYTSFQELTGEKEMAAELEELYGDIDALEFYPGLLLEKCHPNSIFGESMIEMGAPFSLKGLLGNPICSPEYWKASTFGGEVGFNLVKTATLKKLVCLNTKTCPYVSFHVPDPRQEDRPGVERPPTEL
# Description: as §1
# [3] = test system: adjuvant-induced footpad edema in rats; assay: Adjuvant assay (adjuvant-induced footpad edema); assay type: in vivo, rat; settings: Male Lewis rats, 3 mg/kg po, dosing day 14 to day 21 post-adjuvant
# Description: See, for example, […], “Rat Adjuvant Arthritis A Model of Chronic Inflammation,” Pharmocoloigal Methods in the Control of Inflammation, 363-380 (1989) and references cited therein In this assay, Male Lewis rats weighing between 180-220 g were lightly anesthetized with an ip injection of 30 mg/kg of sodium pentobarbital (50 mg/mL). Desiccated Mycobacterium butyrium (Difco, 20 mg/mL) suspended in mineral oil was injected (50 μL) at both sides of the base of the tail under the skin A line was tattooed on both rear paws at 5 mm above the angle of the ankle The paw volumes, under the line, were measured by volume displacement using a plethysmometer (Ugo Basile) at the day of adjuvant injection (day 0) and on day 14 On day 14, animals with paw volumes equal to the mean of paw volumes ±SD were randomized into treatment groups. Rats which fell outside ±1 SD were not used in the experiment.
Structure (SMILES),inhibition of COX-2 [1],inhibition of COX-1 [2],paw volume as compared to vehicle controls [3]
"CC(=O)Oc1c(C(C)(C)C)cc(/C=[N+](\[O-])C(C)(C)C)cc1C(C)(C)C [Example 1, α-(4-Acetoxy-3,5-di-tert-butylphenyl)-N-tert-butylnitrone]",did not significantly affect,did not significantly affect,
COc1ccc2c(c1)c(CC(=O)O)c(C)n2C(=O)c1ccc(Cl)cc1 [indomethacin],,,significantly reduced
